Laboratory results reported in US12404262B2 (priority 2021, dated 2025).

Conditions: 1.0% DMSO, 24-hour incubation at ambient temperature, maximum theoretical 100 μM; for pH 2 solubility: 0.1N HCl, first value of the cell; for pH 7 solubility: 1×PBS buffer (pH 7.4), second value of the cell

| SMILES | pH 2 solubility | pH 7 solubility |
| --- | --- | --- |
| CC(C)(C#Cc1ccc(-c2ccc(Cl)c3c(N(C(=O)OCCC(=O)O)S(C)(=O)=O)nn(CC(F)(F)F)c23)c([C@H](Cc2cc(F)cc(F)c2)NC(=O)Cn2nc(C(F)(F)F)c3c2C(F)(F)[C@@H]2C[C@H]32)n1)S(C)(=O)=O [Compound 121, 3-(((4-chloro-7-(2-((S)-1-(2-((3bS,4aR)-5,5-difluoro-3-(trifluoromethyl)-3b,4,4a,5-tetrahydro-1H-cyclopropa[3,4]cyclopenta[1,2-c]pyrazol-1-yl)acetamido)-2-(3,5-difluorophenyl)ethyl)-6-(3-methyl-3-(methylsulfonyl)but-1-yn-1-yl)pyridin-3-yl)-1-(2,2,2-trifluoroethyl)-1H-indazol-3-yl)(methylsulfonyl)carbamoyl)oxy)propanoic acid] | 1 μM | 21 μM |
| CC(C)(C#Cc1ccc(-c2ccc(Cl)c3c(N(C(=O)N[C@H](CC(=O)O)C(=O)O)S(C)(=O)=O)nn(CC(F)(F)F)c23)c([C@H](Cc2cc(F)cc(F)c2)NC(=O)Cn2nc(C(F)(F)F)c3c2C(F)(F)[C@@H]2C[C@H]32)n1)S(C)(=O)=O [Compound 70, ((4-chloro-7-(2-((S)-1-(2-((3bS,4aR)-5,5-difluoro-3-(trifluoromethyl)-3b,4,4a,5-tetrahydro-1H-cyclopropa[3,4]cyclopenta[1,2-c]pyrazol-1-yl)acetamido)-2-(3,5-difluorophenyl)ethyl)-6-(3-methyl-3-(methylsulfonyl)but-1-yn-1-yl)pyridin-3-yl)-1-(2,2,2-trifluoroethyl)-1H-indazol-3-yl)(methylsulfonyl)carbamoyl)-D-aspartic acid] | 1 μM | 58 μM |
| CC(C)(CO)C(=O)OCN(c1nn(CC(F)(F)F)c2c(-c3ccc(C#CC(C)(C)S(C)(=O)=O)nc3[C@H](Cc3cc(F)cc(F)c3)NC(=O)Cn3nc(C(F)(F)F)c4c3C(F)(F)[C@@H]3C[C@H]43)ccc(Cl)c12)S(C)(=O)=O [Compound 24, (N-(4-chloro-7-(2-((S)-1-(2-((3bS,4aR)-5,5-difluoro-3-(trifluoromethyl)-3b,4,4a,5-tetrahydro-1H-cyclopropa[3,4]cyclopenta[1,2-c]pyrazol-1-yl)acetamido)-2-(3,5-difluorophenyl)ethyl)-6-(3-methyl-3-(methylsulfonyl)but-1-yn-1-yl)pyridin-3-yl)-1-(2,2,2-trifluoroethyl)-1H-indazol-3-yl)methylsulfonamido)methyl 3-hydroxy-2,2-dimethylpropanoate] | 1/1 μM | 1/1 μM |
| CC(NC(=O)N(c1nn(CC(F)(F)F)c2c(-c3ccc(C#CC(C)(C)S(C)(=O)=O)nc3[C@H](Cc3cc(F)cc(F)c3)NC(=O)Cn3nc(C(F)(F)F)c4c3C(F)(F)[C@@H]3C[C@H]43)ccc(Cl)c12)S(C)(=O)=O)(C(=O)O)C(=O)O [Compound 52, 2-(3-(4-chloro-7-(2-((S)-1-(2-((3bS,4aR)-5,5-difluoro-3-(trifluoromethyl)-3b,4,4a,5-tetrahydro-1H-cyclopropa[3,4]cyclopenta[1,2-c]pyrazol-1-yl)acetamido)-2-(3,5-difluorophenyl)ethyl)-6-(3-methyl-3-(methylsulfonyl)but-1-yn-1-yl)pyridin-3-yl)-1-(2,2,2-trifluoroethyl)-1H-indazol-3-yl)-3-(methylsulfonyl)ureido)-2-methylmalonic acid] | 1 μM | 100 μM |
| C[C@H](CN(C)C(=O)N(c1nn(CC(F)(F)F)c2c(-c3ccc(C#CC(C)(C)S(C)(=O)=O)nc3[C@H](Cc3cc(F)cc(F)c3)NC(=O)Cn3nc(C(F)(F)F)c4c3C(F)(F)[C@@H]3C[C@H]43)ccc(Cl)c12)S(C)(=O)=O)OP(=O)(O)O [Compound 49, (R)-1-(3-(4-chloro-7-(2-((S)-1-(2-((3bS,4aR)-5,5-difluoro-3-(trifluoromethyl)-3b,4,4a,5-tetrahydro-1H-cyclopropa[3,4]cyclopenta[1,2-c]pyrazol-1-yl)acetamido)-2-(3,5-difluorophenyl)ethyl)-6-(3-methyl-3-(methylsulfonyl)but-1-yn-1-yl)pyridin-3-yl)-1-(2,2,2-trifluoroethyl)-1H-indazol-3-yl)-1-methyl-3-(methylsulfonyl)ureido)propan-2-yl dihydrogen phosphate] | 1 μM | 82 μM |
| CC(C)(C#Cc1ccc(-c2ccc(Cl)c3c(N(C(=O)NCCN4CCN(C(=N)N)CC4)S(C)(=O)=O)nn(CC(F)(F)F)c23)c([C@H](Cc2cc(F)cc(F)c2)NC(=O)Cn2nc(C(F)(F)F)c3c2C(F)(F)[C@@H]2C[C@H]32)n1)S(C)(=O)=O [Compound 74, N—((S)-1-(3-(3-(N-((2-(4-carbamimidoylpiperazin-1-yl)ethyl)carbamoyl)methylsulfonamido)-4-chloro-1-(2,2,2-trifluoroethyl)-1H-indazol-7-yl)-6-(3-methyl-3-(methylsulfonyl)but-1-yn-1-yl)pyridin-2-yl)-2-(3,5-difluorophenyl)ethyl)-2-((3bS,4aR)-5,5-difluoro-3-(trifluoromethyl)-3b,4,4a,5-tetrahydro-1H-cyclopropa[3,4]cyclopenta[1,2-c]pyrazol-1-yl)acetamide] | 72 μM | 24 μM |
| CC(C)(C#Cc1ccc(-c2ccc(Cl)c3c(N(C(=O)NCCNC(=O)C(=O)O)S(C)(=O)=O)nn(CC(F)(F)F)c23)c([C@H](Cc2cc(F)cc(F)c2)NC(=O)Cn2nc(C(F)(F)F)c3c2C(F)(F)[C@@H]2C[C@H]32)n1)S(C)(=O)=O [Compound 77, 2-((2-(3-(4-chloro-7-(2-((S)-1-(2-((3bS,4aR)-5,5-difluoro-3-(trifluoromethyl)-3b,4,4a,5-tetrahydro-1H-cyclopropa[3,4]cyclopenta[1,2-c]pyrazol-1-yl)acetamido)-2-(3,5-difluorophenyl)ethyl)-6-(3-methyl-3-(methylsulfonyl)but-1-yn-1-yl)pyridin-3-yl)-1-(2,2,2-trifluoroethyl)-1H-indazol-3-yl)-3-(methylsulfonyl)ureido)ethyl)amino)-2-oxoacetic acid] | 21 μM | 1 μM |
| CC(C)(C#Cc1ccc(-c2ccc(Cl)c3c(N(C(=O)N(CC(=O)O)CC(=O)O)S(C)(=O)=O)nn(CC(F)(F)F)c23)c([C@H](Cc2cc(F)cc(F)c2)NC(=O)Cn2nc(C(F)(F)F)c3c2C(F)(F)[C@@H]2C[C@H]32)n1)S(C)(=O)=O [Compound 78, 2,2′-(((4-chloro-7-(2-((S)-1-(2-((3bS,4aR)-5,5-difluoro-3-(trifluoromethyl)-3b,4,4a,5-tetrahydro-1H-cyclopropa[3,4]cyclopenta[1,2-c]pyrazol-1-yl)acetamido)-2-(3,5-difluorophenyl)ethyl)-6-(3-methyl-3-(methylsulfonyl)but-1-yn-1-yl)pyridin-3-yl)-1-(2,2,2-trifluoroethyl)-1H-indazol-3-yl)(methylsulfonyl)carbamoyl)azanediyl)diacetic acid] | 14 μM | 22 μM |
| CN(CC(C)(C)O)C(=O)N(c1nn(CC(F)(F)F)c2c(-c3ccc(C#CC(C)(C)S(C)(=O)=O)nc3[C@H](Cc3cc(F)cc(F)c3)NC(=O)Cn3nc(C(F)(F)F)c4c3C(F)(F)[C@@H]3C[C@H]43)ccc(Cl)c12)S(C)(=O)=O [Compound 47, N—((S)-1-(3-(4-chloro-3-(N-((2-hydroxy-2-methylpropyl)(methyl)carbamoyl)methylsulfonamido)-1-(2,2,2-trifluoroethyl)-1H-indazol-7-yl)-6-(3-methyl-3-(methylsulfonyl)but-1-yn-1-yl)pyridin-2-yl)-2-(3,5-difluorophenyl)ethyl)-2-((3bS,4aR)-5,5-difluoro-3-(trifluoromethyl)-3b,4,4a,5-tetrahydro-1H-cyclopropa[3,4]cyclopenta[1,2-c]pyrazol-1-yl)acetamide] | 1/1 μM | 1/1 μM |
| CC(C)(C#Cc1ccc(-c2ccc(Cl)c3c(N(CCO)S(C)(=O)=O)nn(CC(F)(F)F)c23)c([C@H](Cc2cc(F)cc(F)c2)NC(=O)Cn2nc(C(F)(F)F)c3c2C(F)(F)[C@@H]2C[C@H]32)n1)S(C)(=O)=O [Compound 18, N—((S)-1-(3-(4-chloro-3-(N-(2-hydroxyethyl)methylsulfonamido)-1-(2,2,2-trifluoroethyl)-1H-indazol-7-yl)-6-(3-methyl-3-(methylsulfonyl)but-1-yn-1-yl)pyridin-2-yl)-2-(3,5-difluorophenyl)ethyl)-2-((3bS,4aR)-5,5-difluoro-3-(trifluoromethyl)-3b,4,4a,5-tetrahydro-1H-cyclopropa[3,4]cyclopenta[1,2-c]pyrazol-1-yl)acetamide] | 1/1 μM | 1/1 μM |
| CC(=O)N(c1nn(CC(F)(F)F)c2c(-c3ccc(C#CC(C)(C)S(C)(=O)=O)nc3[C@H](Cc3cc(F)cc(F)c3)NC(=O)Cn3nc(C(F)(F)F)c4c3C(F)(F)[C@@H]3C[C@H]43)ccc(Cl)c12)S(C)(=O)=O [Compound 1, N—((S)-1-(3-(4-chloro-3-(N-(methylsulfonyl)acetamido)-1-(2,2,2-trifluoroethyl)-1H-indazol-7-yl)-6-(3-methyl-3-(methylsulfonyl)but-1-yn-1-yl)pyridin-2-yl)-2-(3,5-difluorophenyl)ethyl)-2-((3bS,4aR)-5,5-difluoro-3-(trifluoromethyl)-3b,4,4a,5-tetrahydro-1H-cyclopropa[3,4]cyclopenta[1,2-c]pyrazol-1-yl)acetamide] | 1/1 μM | 1/1 μM |
